Experimental data reported in PMC10914475 (iScience, 2024).

Target: SfCht5 (S. frugiperda chitinase 5; rSfCht5) (Spodoptera frugiperda, UniProt A0A8K1Z7B3)
Experiment: residual endochitinase activity with synthetic substrate
Format: biochemical

Sequence of SfCht5 (S. frugiperda chitinase 5; rSfCht5) (A0A8K1Z7B3 21-555): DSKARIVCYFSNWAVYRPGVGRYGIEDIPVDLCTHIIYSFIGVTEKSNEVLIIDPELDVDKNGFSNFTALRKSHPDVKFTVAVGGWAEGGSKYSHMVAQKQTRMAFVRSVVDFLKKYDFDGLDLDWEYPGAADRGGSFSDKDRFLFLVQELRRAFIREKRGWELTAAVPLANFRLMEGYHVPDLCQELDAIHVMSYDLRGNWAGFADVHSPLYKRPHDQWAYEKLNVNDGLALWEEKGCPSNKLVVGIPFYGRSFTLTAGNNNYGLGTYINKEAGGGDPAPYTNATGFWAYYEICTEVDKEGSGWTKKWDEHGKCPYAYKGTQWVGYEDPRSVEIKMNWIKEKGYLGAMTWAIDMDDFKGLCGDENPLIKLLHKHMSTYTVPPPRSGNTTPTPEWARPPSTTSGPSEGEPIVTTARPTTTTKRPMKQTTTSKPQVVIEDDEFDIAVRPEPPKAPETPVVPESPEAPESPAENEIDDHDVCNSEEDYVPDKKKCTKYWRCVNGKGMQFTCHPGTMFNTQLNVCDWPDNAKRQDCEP

IC50: ~158 µM
SMILES: COc1ccc2cc3[n+](cc2c1OC)CCc1cc2c(cc1-3)OCO2 [berberine, 9,10-Dimethoxy-5,6-dihydro-[1,3] dioxolo[4,5-g]isoquinolino[3,2-a]isoquinolin-7-ium chloride dihydrate]
